Data: US20070292351A1, “Assay for efficacy of histone deacetylase inhibitors” (Methylgene, Inc., priority 2006, published 2007)

How the values were obtained:
[1] = tested on: peripheral white blood cells from healthy volunteers; assay: Semi-quantitative PCR of MT3 in peripheral white blood cells treated ex vivo; type: cell-based, human; conditions: 24 hr or 48 hr (FIG. 6)
Method: Peripheral white blood cells were isolated from healthy volunteers and treated ex vivo with MGCD0103 at indicated doses for 24 hr or 48 hr. RNA was extracted to monitor MT3 mRNA level by conventional semi-quantitative PCR (normalized to β-actin).
(§1) Whole blood from either consenting healthy volunteers or consenting patients was centrifuged at 2500 rpm for 10 minutes at ambient temperature in a Sorvall RT-7 centrifuge (Mandel Scientific Co., Guelph, Ontario). Plasma was removed and buffy coat was collected. Five volumes of Erythrocyte Lysis Buffer (EL) (Qiagen Canada Inc., Mississauga, Ontario) were added into buffy coat. Buffy coat was incubated on ice for 20 minutes before it was centrifuged at 400 g for 10 minutes at 4° C. Supernatant was removed and buffy coat was washed twice with EL buffer and re-centrifuged. Buffy coat was resuspended in RPMI media and cells were counted with trypan blue exclusion. To isolate PBMCs, buffy coat cells were centrifuged over Lymphoprep (Axis-Shield, 1114544), and any remaining erythrocytes in the sample were lysed by treatment with EL lysis buffer (Qiagen, 79217). The cell pellets are washed and then re-suspended in RPMI containing 10% FBS.
RNA was extracted from 8×10^6 cells using the Qiagen RNeasy Mini kit (cat#74106, Qiagen, Missisauga Ont.) following the manufacturer's instructions. […]

[2] = tested on: HDAC activity; assay: Fluorescence-based whole cell HDAC enzyme assay in patients' peripheral white blood cells; type: in vivo, human
Method: At day 8 (72 h after the third dose), peripheral white blood cells were tested for HDAC activity by whole cell assay
as §1
(§2) Human patients with either solid tumors or leukemia/MDS diseases were enrolled in phase I studies with consensus forms. MGCD0103 were dosed into patients orally every other day (day 1, day 3, day 5 […]). Blood samples were withdrawled by using the Vacutainer sodium-heparin blood collection tubes (Becton Dickinson Laboratories, Franklin Lakes, N.J.) and shipped to the test site within 24 hours on ice-pack. Baseline samples were drawn immediately prior to the first drug dose, while the 24 hour samples were drawn at 24 hours post the first drug dose. The 48 hours samples were drawn at 48 hours post the first dose. For the 1 week samples, blood was drawn 72 hours after day 5 dose (3 accumulated doses during week 1).
Freshly trypsinized cells or cells in suspension were dispensed in 96-well black Costar E1A/RIA plates (Corning Inc., Corning, N.Y.). We typically used 5×10^4 to 2×10^5 cells per well, and 8×10^5 white blood (mouse or human) cells/per well. Small molecule substrate Boc-Lys(Ac)-AMC (Bachem Biosciences Inc., King of Prussia, Philadelphia) were added to cell suspension with the final concentration of 300 uM. Cells were placed in a 37° C. incubator with 5% CO2 for 90 minutes (in the case of white blood cells, we incubated for 60 min). Fluorescence was read immediately before adding stop mixture to get a background. […] Fluorescence was developed for 15 minutes at 37° C. and read in a fluorometer (SPECTRAMAX GeminiXS, Molecular Devices, Sunnyvale, Calif.) with an excitation wavelength at 360 nm, emission at 470 nm, and a cutoff of 435 nm.

[3] = tested on: peripheral blast cells from AML patients; assay: Microarray gene expression analysis, AML patients treated with MGCD0103 in vivo; parameters: species or system human; conditions: for Fold of Induction of CCL4 transcription / Fold of Induction of CCL7 transcription / Fold of Induction of IFNG transcription / Fold of Induction of THBS1 transcription: AML Patient A (clinical response)
Method: as §1
Biological analysis was performed using Biointerpreter software.
as §2

[4] = tested on: Jurkat cells; assay: IL-6 transcription in Jurkat cells; type: cell-based, human; conditions: 24 hours (FIG. 14)
Method: (§3) Quantitative PCR with SYBR Green I detection with Mastercycler® ep realplex (Eppendorf) was performed using LightCycler® 480 SYBR Green I Master (Roche Diagnostics). SYBR Green I assays were performed with 600 nM primers. All other reaction conditions were as described by the manufacturer. Amplification conditions were 5 minutes of initial denaturation at 95° C., followed by 40 cycles of each 15 seconds at 95° C., 15 seconds at 63.4° C., 20 seconds at 68° C., a melting curve from 60° C. to 95° C. was recorded. Quantification was performed using Pfaffl method, a relative quantification method in real-time PCR (Nucleic Acids Research 2001 29:2002-2007). Primers were synthesized by Invitrogen (Invitrogen-Canada, Burlington, Ont.).

[5] = tested on: Jurkat-T leukemic cells; assay: RT-PCR of MT3 transcription in Jurkat-T cells; type: cell-based, human; conditions: 16 h, semi-quantitative RT-PCR (FIG. 2)
Method: RNA was extracted from 8×10^6 cells using the Qiagen RNeasy Mini kit (cat#74106, Qiagen, Missisauga Ont.) following the manufacturer's instructions. RT reaction was performed using the Expand Reverse Transcriptase kit from Roche (Cat#1 785 834 Roche Applied Biosciences, Laval, Que) with 1 μg total RNA together with 1 μl oligo(dT) primer (cat#y01212, Invitrogen-Canada, Burlington, Ont). cDNA was synthesized using an Eppendorf Mastercycler gradient PCR apparatus (Brinkmann Instruments Canada LTD., Mississauga, Ontario), using a two cycle protocol. For the 1st cycle reaction mixture (0.5 μl H2O, 4 μl of 5× Buffer, 2 μl DTT, 2 ul of 10 mM dNTPs, 0.5 μl RNAsin (cat#N211B, Promega, Fisher Scientific, Whitby, Ont.) and […] of the Expand Reverse Transcriptase (Cat#1785834, Roche, Laval, Quebec)) was incubated at 65° C. for 10 minutes and then set on ice. A second cycle was performed at 42° C. for 1 hour. The resulting cDNA products were kept at 4° C. until used.
One ul of the resulting cDNA was used for every amplification reaction with 18.9 ul H2O, 1.25 ul of 10 mM dNTPs, 0.5 ul of each primer pair, 2.5 ul of 10× Buffer. The PCR reaction was carried out in an Eppendorf Mastercycler gradient. The sequences of the primers used for the amplification of selected biomarkers, as well as the details of the PCR reaction cycles are featured below. […]

[6] = tested on: human RPMI8226 cells; assay: IL-6 transcription in RPMI8226 cells; type: cell-based; conditions: 24 hours (FIG. 14)
Method: as §3

SMILES: Nc1ccccc1NC(=O)c1ccc(CNc2nccc(-c3cccnc3)n2)cc1 [MGCD0103]
- Induction of MT3 transcription ex vivo [1]: time-dependent and dose-dependent
- inhibition of HDAC activity in peripheral white cells ([2]; AML Patient A with clinical response (FIG. 9)): Time-dependent inhibition
- HDAC inhibition ([2]; AML patient (Patient A) with clinical response, day 8): 68%
- HDAC inhibition in vivo in peripheral white blood cells ([2]; patients with solid tumors, one week (three doses per week), day 8 (FIG. 7)): dose-dependent HDAC inhibition
- average HDAC inhibition ([2]; three other AML patients (no response), day 8): < 5%
- Fold of Induction of CCL4 transcription ([3]; 24 hr): 1.4 fold
- Fold of Induction of CCL7 transcription ([3]; 24 hr): 2.3 fold
- Fold of Induction of IFNG transcription ([3]; 24 hr): 1.4 fold
- Fold of Induction of THBS1 transcription ([3]; 24 hr): 1.4 fold
- Fold of Induction of CCL4 transcription ([3]; day 8): 12.2 fold
- Fold of Induction of CCL7 transcription ([3]; day 8): 7.3 fold
- Fold of Induction of IFNG transcription ([3]; day 8): 2.5 fold
- Fold of Induction of THBS1 transcription ([3]; day 8): 2.8 fold
- Induction of transcription of a subset of proapoptotic proteins ([3]; peripheral blast cells, D8 vs 0 h, AML Patient A (response), in contrast to Patients B, C, D (FIG. 11)): Induction
- induction of transcription of the Table 5 genes (CCL7, CCL4, IFNG, THBS1) ([3]; three other AML patients without response): <= 1 fold
- dose-dependent induction of IL-6 transcription [4]: dose-dependent induction
- Dose-dependent induction of MT3 transcription [5]: Dose-dependent induction
- dose-dependent induction of IL-6 transcription [6]: dose-dependent induction
